Residues, ends and D or L forms follow the SMILES beside them. *: point of attachment. Succinyl(4-O-cholesteryl) = CC(C)CCC[C@@H](C)[C@H]1CC[C@H]2[C@@H]3CC=C4C[C@@H](OC(=O)CCC(=O)*)CC[C@]4(C)[C@H]3CC[C@]12C
Key:
[1] = tested on: HIV-1 envelope protein (Env); test: Env-mediated cell-cell fusion inhibition (DSP reporter system); details: for IC50: read-out: average IC50 value, membrane fusion of 12 viruses, average over Env of 12 representative pandemic HIV-1 strains; for inhibitory activity against membrane fusions of 12 viruses higher than that of the T20: versus T20
[2] = tested on: representative pandemic HIV-1 strain pseudoviruses; details: for IC50: representative pandemic strain pseudoviruses, 48 h; for inhibitory activity against 12 pseudoviruses higher than that of the T20: versus T20
[3] = tested on: replicative HIV-1 strain JR-CSF; details: replicative strain JR-CSF, 48 h
[4] = tested on: HIV-1 strain SG3.1 living virus; details: for IC50: strain SG3.1 living virus
[5] = tested on: HIV-1 strain NL4-3 pseudovirus; details: for IC50: strain NL4-3 pseudovirus
[6] = tested on: T20-resistant mutant strains (HIV-1 strain NL4-3); details: for IC50: T20-resistant mutant strains ( strain NL4-3, 48 h); for inhibitory activity against 12 drug-resistant mutant strains higher than that of the LP-98: versus LP-98
[7] = tested on: HIV-1 strain JRFL pseudovirus; details: for IC50: strain JRFL pseudovirus
[8] = Circular dichroism of lipopeptide alone; type: physicochemical; details: CD, 10 µM in PBS pH 7.2
N44 = N44 (Human immunodeficiency virus type 1 group M subtype B, UniProt P04578); test: Circular dichroism of lipopeptide complex with target sequence N44; details: CD; for Tm value of the mixture with N44: [θ]222, 20-98 °C at 2 °C/min; for α-helix content of the mixture with N44: lipopeptide and N44 each 10 µM in PBS pH 7.2
[9] = LP-124 versus LP-122, LP-125 versus LP-123

N44, sequence (P04578 538-581): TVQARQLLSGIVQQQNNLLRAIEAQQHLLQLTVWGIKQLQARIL

Compound: Enfuvirtide
- IC50 [1]: 11.2 nM
- IC50 [2]: 20.1 nM
- IC50 [3]: 5.6 nM
- IC50 [4]: 2.91 nM

Compound: CC[C@H](C)[C@H](NC(=O)[C@H](CCCCN)NC(=O)[C@H](CCCCN)NC(=O)[C@H](CCC(=O)O)NC(=O)[C@H](Cc1c[nH]c2ccccc12)NC(=O)[C@H](CCC(=O)O)NC(=O)[C@H](CCC(=O)O)NC(=O)[C@H](Cc1c[nH]c2ccccc12)NC(=O)[C@@H](NC(C)=O)[C@@H](C)O)C(=O)N[C@@H](CCC(=O)O)C(=O)N[C@@H](CCC(=O)O)C(=O)N[C@@H](CC(C)C)C(=O)N[C@@H](CCC(=O)O)C(=O)N[C@@H](CCCCN)C(=O)N[C@@H](CCCCN)C(=O)N[C@H](C(=O)N[C@@H](CCC(=O)O)C(=O)N[C@@H](CCC(=O)O)C(=O)N[C@@H](CC(C)C)C(=O)N[C@@H](CC(C)C)C(=O)N[C@@H](CCCCN)C(=O)N[C@@H](CCCCN)C(=O)N[C@@H](C)C(=O)N[C@@H](CCC(=O)O)C(=O)N[C@@H](CCC(=O)O)C(=O)N[C@@H](CCC(N)=O)C(=O)N[C@@H](CCC(N)=O)C(=O)N[C@@H](CCCCN)C(=O)N[C@@H](CCCCN)C(=O)N[C@@H](CC(N)=O)C(=O)N[C@@H](CCC(=O)O)C(=O)N[C@@H](C)C(=O)N[C@@H](C)C(=O)N[C@@H](C)C(=O)N[C@@H](CCCCN)C(=O)N[C@@H](CCCCNC(=O)CCC(=O)O[C@H]1CC[C@@]2(C)C(=CC[C@H]3[C@@H]4CC[C@H]([C@H](C)CCCC(C)C)[C@@]4(C)CC[C@@H]32)C1)C(N)=O)[C@@H](C)CC [LP-123] (Ac-TWEEWEKKIEELEKKIEELLKKAEEQQKKNEAAAKK(Succinyl(4-O-cholesteryl))-NH2)
- IC50 [5]: 0.0181 nM
- IC50 [6]: 0.0555 nM
- inhibitory activity against 12 drug-resistant mutant strains higher than that of the LP-98 [6]: 48 folds
- IC50 [1]: 0.024 nM
- inhibitory activity against membrane fusions of 12 viruses higher than that of the T20 [1]: 466 folds
- IC50 [2]: 0.0274 nM
- inhibitory activity against 12 pseudoviruses higher than that of the T20 [2]: 732 folds
- IC50 [7]: 0.0146 nM
- IC50 [4]: 0.00368 nM
- α-helix content, lipopeptide alone [8]: 56%
- Tm value of the mixture with N44 (N44): > 98 °C
- α-helix content of the mixture with N44 (N44): 79%

Compound: CC[C@H](C)[C@H](NC(=O)[C@H](CCCCN)NC(=O)[C@H](CCCCN)NC(=O)[C@H](CCC(=O)O)NC(=O)[C@H](Cc1ccc(O)cc1)NC(=O)[C@H](CCC(=O)O)NC(=O)[C@H](CCC(=O)O)NC(=O)[C@H](Cc1ccc(O)cc1)NC(=O)[C@@H](NC(C)=O)[C@@H](C)O)C(=O)N[C@@H](CCC(=O)O)C(=O)N[C@@H](CCC(=O)O)C(=O)N[C@@H](CC(C)C)C(=O)N[C@@H](CCC(=O)O)C(=O)N[C@@H](CCCCN)C(=O)N[C@@H](CCCCN)C(=O)N[C@H](C(=O)N[C@@H](CCC(=O)O)C(=O)N[C@@H](CCC(=O)O)C(=O)N[C@@H](CC(C)C)C(=O)N[C@@H](CC(C)C)C(=O)N[C@@H](CCCCN)C(=O)N[C@@H](CCCCN)C(=O)N[C@@H](C)C(=O)N[C@@H](CCC(=O)O)C(=O)N[C@@H](CCC(=O)O)C(=O)N[C@@H](CCC(N)=O)C(=O)N[C@@H](CCC(N)=O)C(=O)N[C@@H](CCCCN)C(=O)N[C@@H](CCCCN)C(=O)N[C@@H](CC(N)=O)C(=O)N[C@@H](CCC(=O)O)C(=O)N[C@@H](C)C(=O)N[C@@H](C)C(=O)N[C@@H](C)C(=O)N[C@@H](CCCCN)C(=O)N[C@@H](CCCCNC(=O)CCC(=O)O[C@H]1CC[C@@]2(C)C(=CC[C@H]3[C@@H]4CC[C@H]([C@H](C)CCCC(C)C)[C@@]4(C)CC[C@@H]32)C1)C(N)=O)[C@@H](C)CC [LP-125] (Ac-TYEEYEKKIEELEKKIEELLKKAEEQQKKNEAAAKK(Succinyl(4-O-cholesteryl))-NH2)
- activity increased as compared to its template, NL4-3 pseudovirus [5, 9]: about 5 folds
- IC50 [5]: 0.00343 nM
- IC50 [6]: 0.00629 nM
- inhibitory activity against 12 drug-resistant mutant strains higher than that of the LP-98 [6]: 423 folds
- IC50 [1]: 0.0119 nM
- inhibitory activity against membrane fusions of 12 viruses higher than that of the T20 [1]: 942 folds
- IC50 [2]: 0.00422 nM
- inhibitory activity against 12 pseudoviruses higher than that of the T20 [2]: 4752 folds
- activity increased as compared to its template, JRFL pseudovirus [7, 9]: ~3 folds
- IC50 [7]: 0.00578 nM
- activity increased as compared to its template, SG3.1 living virus [4, 9]: ~3 folds
- IC50 [4]: 0.00111 nM
- α-helix content, lipopeptide alone [8]: 78%
- Tm value of the mixture with N44 (N44): 91 °C
- α-helix content of the mixture with N44 (N44): 89%
